Here are results for 29 compounds from ChEMBL document CHEMBL5532702, “Coumarin-furo[2,3-d]pyrimidone hybrid molecules targeting human liver cancer cells: synthesis, anticancer effect, EGFR inhibition and molecular docking studies” (RSC Med Chem, 2024).

pIC50: −log10 of the molar value. The source made the active and inactive calls. The calls are words filed in the database; no cut-off is given here.

The subject of one assay is HepG2. The experiment in a line: Inhibition of cell migration in human HepG2 cells at 5.42 to 27.10 micromol/L incubated for 24 hrs by crystal violet staining based microscopic analysis. The conditions noted are these: dose 5.42-27.1 µmol/L. The assay is classed as functional.
Consider `CCN(CC)c1nc2oc(C)c(C(=O)NN)c2c(=O)n1-c1ccc(C)cc1`, for which the inhibition entry was “Active”.

For a further assay, the system named is HepG2. The experiment in a line: Inhibition of cell invasion in human HepG2 cells at 5.42 to 27.10 micromol/L incubated for 24 hrs by crystal violet staining based microscopic analysis. The format is functional. The conditions noted are these: dose 5.42-27.1 µmol/L.
Consider `CCN(CC)c1nc2oc(C)c(C(=O)NN)c2c(=O)n1-c1ccc(C)cc1`, for which the inhibition result was “Active”.

For a further assay, the system named is HepG2. Kind of assay: Cytotoxicity against human HepG2 cells assessed as reduction in cell viability incubated for 48 hrs by CCK-8 assay. The conditions noted are these: HepG2, 48 h.
Take `CCCNc1nc2oc(C)c(C(=O)NN)c2c(=O)n1-c1ccc(C)cc1`: the negative logarithm of the IC50 (pIC50) was 4.08.
Same read-out and setting: next, `Cc1oc2nc(N3CCOCC3)n(-c3ccccc3)c(=O)c2c1C(=O)NN`: 4.35; `CCCCNc1nc2oc(C)c(C(=O)NNC(=O)c3cc4ccccc4oc3=O)c2c(=O)n1-c1ccccc1`: 5.06.
Still for that read-out and setting: next, `CCCCNc1nc2oc(C)c(C(=O)NNC(=O)c3cc4ccccc4oc3=O)c2c(=O)n1-c1cccc(C)c1`: 4.89; `Cc1ccc(-n2c(N3CCOCC3)nc3oc(C)c(C(=O)NN)c3c2=O)cc1`: 4.25; `CCCN(CCC)c1nc2oc(C)c(C(=O)NN)c2c(=O)n1-c1ccccc1`: 4.77.
The same measure, in the same setting: then `CCCNc1nc2oc(C)c(C(=O)NN)c2c(=O)n1-c1ccccc1`, with 4.16; and `Cc1cccc(-n2c(N3CCOCC3)nc3oc(C)c(C(=O)NNC(=O)c4cc5ccccc5oc4=O)c3c2=O)c1`, with 4.57.
As to `CCN(CC)c1nc2oc(C)c(C(=O)NNC(=O)c3cc4ccccc4oc3=O)c2c(=O)n1-c1cccc(C)c1`, the pIC50 is 4.58.
On the same count and under the same terms, next, `Cc1ccc(-n2c(N3CCOCC3)nc3oc(C)c(C(=O)NNC(=O)c4cc5ccccc5oc4=O)c3c2=O)cc1`: 4.40; `CCCNc1nc2oc(C)c(C(=O)NNC(=O)c3cc4ccccc4oc3=O)c2c(=O)n1-c1ccc(C)cc1`: 4.66.
For the compound `CCCCNc1nc2oc(C)c(C(=O)NN)c2c(=O)n1-c1ccccc1`, the negative-log IC50 (pIC50) was below 4.00.
Still for that read-out and setting: then `CCN(CC)c1nc2oc(C)c(C(=O)NNC(=O)c3cc4ccccc4oc3=O)c2c(=O)n1-c1ccc(C)cc1`, with below 4.00.
Consider `CCN(CC)c1nc2oc(C)c(C(=O)NN)c2c(=O)n1-c1cccc(C)c1`, for which the pIC50 is 4.44.
Still for that read-out and setting: then `CCN(CC)c1nc2oc(C)c(C(=O)NN)c2c(=O)n1-c1ccccc1`, with 4.51; and `CCN(CC)c1nc2oc(C)c(C(=O)NNC(=O)c3cc4ccccc4oc3=O)c2c(=O)n1-c1ccccc1`, with 5.10.
Still for that read-out and setting: then `CCCCNc1nc2oc(C)c(C(=O)NN)c2c(=O)n1-c1ccc(C)cc1`, with below 4.00.
For the compound `CCCNc1nc2oc(C)c(C(=O)NNC(=O)c3cc4ccccc4oc3=O)c2c(=O)n1-c1cccc(C)c1`, the pIC50 was 4.61.
Same read-out and setting: next, `CCCNc1nc2oc(C)c(C(=O)NN)c2c(=O)n1-c1cccc(C)c1`: 4.23; `CCCN(CCC)c1nc2oc(C)c(C(=O)NNC(=O)c3cc4ccccc4oc3=O)c2c(=O)n1-c1ccccc1`: 4.84; `CCCN(CCC)c1nc2oc(C)c(C(=O)NNC(=O)c3cc4ccccc4oc3=O)c2c(=O)n1-c1ccc(C)cc1`: 4.65.
On the same count and under the same terms, then `Cc1cccc(-n2c(N3CCOCC3)nc3oc(C)c(C(=O)NN)c3c2=O)c1`, with 4.39; and `CCCNc1nc2oc(C)c(C(=O)NNC(=O)c3cc4ccccc4oc3=O)c2c(=O)n1-c1ccccc1`, with 5.11.
The same measure, in the same setting: next, `Cc1oc2nc(N3CCOCC3)n(-c3ccccc3)c(=O)c2c1C(=O)NNC(=O)c1cc2ccccc2oc1=O`: 4.62; `CNC(=O)c1cc(Oc2ccc(NC(=O)Nc3ccc(Cl)c(C(F)(F)F)c3)cc2)ccn1` [SORAFENIB]: 4.91; `CCCCNc1nc2oc(C)c(C(=O)NNC(=O)c3cc4ccccc4oc3=O)c2c(=O)n1-c1ccc(C)cc1`: 4.84.
In the case of `CCCCNc1nc2oc(C)c(C(=O)NN)c2c(=O)n1-c1cccc(C)c1`, the negative logarithm of the IC50 (pIC50) was 4.13.
The same measure, in the same setting: then `CCCN(CCC)c1nc2oc(C)c(C(=O)NN)c2c(=O)n1-c1ccc(C)cc1`, with 5.07; and `CCN(CC)c1nc2oc(C)c(C(=O)NN)c2c(=O)n1-c1ccc(C)cc1`, with 4.76.
